Kd data for eleven molecules are collected here from patent US20250011368A1, “DLL3 TARGETING PEPTIDES AND CONSTRUCTS THEREOF” (MARIANA ONCOLOGY INC., priority 2023, published 2025).

SMILES strings stand for the structures. Numbered stars: 1 amine (or outer) side, 2 acyl side, 3 side chain; on linkers, the order of the positions; unused ones are H or OH. Bridge positions count the residues as written; N and C are the ends. Square brackets hold non-standard residues; d marks the D form. Side chains are listed from the residue outwards. Peptide text beside a SMILES is read from it. * marks the point of attachment. X4 = O=C(O)CN1CCN(CC(=O)O)CCN(CC(=O)N[C@H]2CC[C@H](CC(=O)*)CC2)CCN(CC(=O)O)CC1; Ala(piperidin-4-yl) = O=C([C@H](CC1CCN([*:3])CC1)N[*:1])[*:2]; DOTA = O=C(O)CN1CCN(CC(=O)O)CCN(CC(=O)*)CCN(CC(=O)O)CC1; Phe(4-CF3) = N[C@@H](Cc1ccc(C(F)(F)F)cc1)C(=O)O; Trp(5-F) = N[C@@H](Cc1c[nH]c2ccc(F)cc12)C(=O)O; Trp(7-aza) = N[C@@H](Cc1c[nH]c2ncccc12)C(=O)O; Pro(trans-4-F) = O=C(O)[C@@H]1C[C@@H](F)CN1; PEG8 = NCCOCCOCCOCCOCCOCCOCCOCCOCCC(=O)O; Phe(4-F) = N[C@@H](Cc1ccc(F)cc1)C(=O)O; γGlu = O=C(O)[C@H](CCC(=O)[*:2])N[*:1]; 2Nal = N[C@@H](Cc1ccc2ccccc2c1)C(=O)O; pXylylene = c1cc(C[*:2])ccc1C[*:1]; Cha = N[C@@H](CC1CCCCC1)C(=O)O; Tle = CC(C)(C)[C@H](N)C(=O)O; Nle = CCCC[C@H](N)C(=O)O; Aze = O=C(O)[C@@H]1CCN1; Dab = NCC[C@H](N)C(=O)O; Hexanoyl = CCCCCC(=O)*

By Kd is commonly meant the equilibrium constant for the complex coming apart.

The assay addresses T1, human DLL3 (Homo sapiens, UniProt Q9NYJ7).
T1 sequence (Q9NYJ7 27-618): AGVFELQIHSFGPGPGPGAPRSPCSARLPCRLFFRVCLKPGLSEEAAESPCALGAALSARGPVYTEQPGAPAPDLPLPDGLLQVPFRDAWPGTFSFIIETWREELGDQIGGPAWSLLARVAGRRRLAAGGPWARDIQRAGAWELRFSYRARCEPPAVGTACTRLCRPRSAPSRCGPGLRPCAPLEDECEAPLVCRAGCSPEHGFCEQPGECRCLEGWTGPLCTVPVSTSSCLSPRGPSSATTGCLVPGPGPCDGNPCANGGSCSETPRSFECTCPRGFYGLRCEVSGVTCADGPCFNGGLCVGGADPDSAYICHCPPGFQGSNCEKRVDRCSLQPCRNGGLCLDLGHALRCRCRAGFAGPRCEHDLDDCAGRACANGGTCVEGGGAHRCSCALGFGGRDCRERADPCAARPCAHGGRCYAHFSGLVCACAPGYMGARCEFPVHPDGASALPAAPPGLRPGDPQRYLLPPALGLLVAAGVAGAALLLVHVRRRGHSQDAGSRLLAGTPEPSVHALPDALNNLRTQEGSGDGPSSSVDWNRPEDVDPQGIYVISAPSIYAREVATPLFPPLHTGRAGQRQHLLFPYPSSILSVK
Kind of assay: Affinity determination by Surface Plasmon Resonance (SPR). The note with it: 25° C., biotinylated human DLL3 immobilized on streptavidin sensor chip, 1:1 binding model; read-out: SPR KD. It is filed as binding. In a few lines:
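Biotinylated human DLL3 was captured on a streptavidin chip with a reference surface. Compounds at several concentrations were injected at 100 μL/minute in phosphate buffer (137 mM NaCl, 2.7 mM KCl, 0.05% P20, 2% DMSO). Affinity and kinetics came from 1:1 model fits of the sensorgrams.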
Turning to `CCCC[C@H](NC(=O)[C@@H](NC(=O)[C@H](Cc1c[nH]c2ccc(F)cc12)NC(C)=O)[C@@H](C)O)C(=O)N[C@H]1CSSC[C@@H](C(=O)N[C@@H](Cc2c[nH]c3ncccc23)C(=O)N2C[C@H](F)C[C@H]2C(=O)N[C@H](CCCCNC(=O)CN2CCN(CC(=O)O)CCN(CC(=O)O)CCN(CC(=O)O)CC2)C(N)=O)NC(=O)[C@H](CC(=O)O)NC(=O)[C@H](Cc2cnc[nH]2)NC(=O)[C@H](Cc2ccc(F)cc2)NC(=O)[C@H](CC(N)=O)NC(=O)[C@H](CC(N)=O)NC1=O` [compound 132, Ac-(5Fluoro-W)-T-(Nle)-C(3)-N-N-(4Fluoro-F)-H-D-C(3)-(7Aza-W)-(trans4Fluoro-P)-[D-Lys(DOTA)]-NH2] (Ac-[Trp(5-F)]T[Nle]CNN[Phe(4-F)]HDC[Trp(7-aza)][Pro(trans-4-F)][dK](DOTA)-NH2; disulfide 4-10), the dissociation constant (Kd) fell in the range of 1 to 10 nM. To `CC[C@H](C)[C@H](NC(=O)[C@@H](NC(=O)[C@H](Cc1c[nH]c2ccccc12)NC(C)=O)[C@@H](C)O)C(=O)N[C@H]1CSSC[C@@H](C(=O)N[C@@H](Cc2c[nH]c3ccccc23)C(=O)N2CCC[C@H]2C(=O)N[C@H](CCCCNC(=O)CN2CCN(CC(=O)O)CCN(CC(=O)O)CCN(CC(=O)O)CC2)C(N)=O)NC(=O)[C@H](CC(=O)O)NC(=O)[C@H](Cc2cnc[nH]2)NC(=O)[C@H](Cc2ccc3ccccc3c2)NC(=O)[C@H](CCCCN)NC(=O)[C@H](CC(N)=O)NC1=O` [compound 213, Ac-W-T-I-C(3)-N-(Lys)-(2Nal)-H-D-C(3)-W-P-[D-Lys(DOTA)]-NH2] (Ac-WTICNK[2Nal]HDCWP[dK](DOTA)-NH2; disulfide 4-10) belongs < 1 nM. In the case of `CC[C@H](C)[C@H](NC(=O)[C@@H](NC(=O)[C@H](Cc1c[nH]c2ccccc12)NC(C)=O)[C@@H](C)O)C(=O)N[C@H]1CSSC[C@@H](C(=O)N[C@@H](Cc2c[nH]c3ccccc23)C(=O)N2CCC[C@H]2C(=O)N[C@H](CCCCNC(=O)C[C@H]2CC[C@H](NC(=O)CN3CCN(CC(=O)O)CCN(CC(=O)O)CCN(CC(=O)O)CC3)CC2)C(N)=O)NC(=O)[C@H](CC(=O)O)NC(=O)[C@H](Cc2cnc[nH]2)NC(=O)[C@H](Cc2c[nH]c3ccccc23)NC(=O)[C@H](CC(N)=O)NC(=O)[C@H](CC(N)=O)NC1=O` [compound 48, Ac-W-T-I-C(3)-N-N-W-H-D-C(3)-W-P-(D-Lys)-CyHex-DOTA-NH2] (Ac-WTICNNWHDCWP[dK](X4)-NH2; disulfide 4-10) it was 1 to 10 nM. As for `CC(=O)N[C@@H](Cc1c[nH]c2ccccc12)C(=O)N[C@H](C(=O)N[C@H](C(=O)N[C@H]1CSSC[C@@H](C(=O)N[C@@H](Cc2c[nH]c3ccccc23)C(=O)N2CCC[C@H]2C(=O)N[C@H](CCCCNC(=O)CN2CCN(CC(=O)O)CCN(CC(=O)O)CCN(CC(=O)O)CC2)C(N)=O)NC(=O)[C@H](CC(=O)O)NC(=O)[C@H](Cc2cnc[nH]2)NC(=O)[C@H](Cc2ccc3ccccc3c2)NC(=O)[C@H](CC(N)=O)NC(=O)[C@H](CC2CCNCC2)NC1=O)C(C)(C)C)[C@@H](C)O` [compound 281, Ac-W-T-(Tbg)-C(3)-[3-(4-piperidinyl)-Ala]-N-(2Nal)-H-D-C(3)-W-P-[D-Lys(DOTA)]-NH2] (Ac-WT[Tle]C[Ala(piperidin-4-yl)]N[2Nal]HDCWP[dK](DOTA)-NH2; disulfide 4-10), the Kd is < 1 nM.

Consider `CC(=O)N[C@@H](Cc1c[nH]c2ccccc12)C(=O)N[C@H](C(=O)N[C@@H](CC1CCCCC1)C(=O)N[C@H]1CSSC[C@@H](C(=O)N[C@@H](Cc2c[nH]c3ncccc23)C(=O)N2CCC[C@H]2C(=O)N[C@H](CCCCNC(=O)CN2CCN(CC(=O)O)CCN(CC(=O)O)CCN(CC(=O)O)CC2)C(N)=O)NC(=O)[C@H](CC(=O)O)NC(=O)[C@H](Cc2cnc[nH]2)NC(=O)[C@H](Cc2ccc3ccccc3c2)NC(=O)[C@H](CC(N)=O)NC(=O)[C@H](C)NC1=O)[C@@H](C)O` [compound 195, Ac-W-T-(CHA)-C(3)-A-N-(2Nal)-H-D-C(3)-(7-Aza-W)-P-[D-Lys(DOTA)]-NH2] (Ac-WT[Cha]CAN[2Nal]HDC[Trp(7-aza)]P[dK](DOTA)-NH2; disulfide 4-10), for which the equilibrium dissociation constant (Kd) was < 1 nM. Regarding `CCCC[C@H](NC(=O)[C@@H](NC(=O)[C@H](Cc1c[nH]c2ccc(F)cc12)NC(C)=O)[C@@H](C)O)C(=O)N[C@H]1CSSC[C@@H](C(=O)N[C@@H](Cc2c[nH]c3ncccc23)C(=O)N2CC[C@H]2C(=O)N[C@H](CCCCNC(=O)CN2CCN(CC(=O)O)CCN(CC(=O)O)CCN(CC(=O)O)CC2)C(N)=O)NC(=O)[C@H](CC(=O)O)NC(=O)[C@H](Cc2cnc[nH]2)NC(=O)[C@H](Cc2ccc(C(F)(F)F)cc2)NC(=O)[C@H](CC(N)=O)NC(=O)[C@H](CC(N)=O)NC1=O` [compound 140, Ac-(5Fluoro-W)-T-(Nle)-C(3)-N-N-(4CF3-F)-H-D-C(3)-(7Aza-W)-(Aze)-[D-Lys(DOTA)]-NH2] (Ac-[Trp(5-F)]T[Nle]CNN[Phe(4-CF3)]HDC[Trp(7-aza)][Aze][dK](DOTA)-NH2; disulfide 4-10), the Kd lay in the range of 10 to 100 nM.

Take `CC[C@H](C)[C@H](NC(=O)[C@@H](NC(=O)[C@H](Cc1c[nH]c2ccccc12)NC(C)=O)[C@@H](C)O)C(=O)N[C@H]1CSSC[C@@H](C(=O)N[C@@H](Cc2c[nH]c3ccccc23)C(=O)N2CC[C@H]2C(=O)N[C@H](CCCCNC(=O)CN2CCN(CC(=O)O)CCN(CC(=O)O)CCN(CC(=O)O)CC2)C(N)=O)NC(=O)[C@H](CC(=O)O)NC(=O)[C@H](Cc2cnc[nH]2)NC(=O)[C@H](Cc2c[nH]c3ccccc23)NC(=O)[C@H](CC(N)=O)NC(=O)[C@H](CC(N)=O)NC1=O` [compound 228, Ac-W-T-I-C(3)-N-N-W-H-D-C(3)-W-Aze-[D-Lys(DOTA)]-NH2] (Ac-WTICNNWHDCW[Aze][dK](DOTA)-NH2; disulfide 4-10): the dissociation constant Kd is 1 to 10 nM.

In the case of `CC[C@H](C)[C@H](NC(=O)[C@@H](NC(=O)[C@H](Cc1c[nH]c2ccccc12)NC(C)=O)[C@@H](C)O)C(=O)N[C@H]1CSSC[C@@H](C(=O)N[C@@H](Cc2c[nH]c3ccccc23)C(=O)N2CCC[C@H]2C(=O)N[C@H](CCCCNC(=O)[C@H]2CCCN2C(=O)[C@H]2CCCN2C(=O)[C@H]2CCCN2C(=O)CCOCCOCCOCCOCCOCCOCCOCCOCCNC(=O)CN2CCN(CC(=O)O)CCN(CC(=O)O)CCN(CC(=O)O)CC2)C(N)=O)NC(=O)[C@H](CC(=O)O)NC(=O)[C@H](Cc2c[nH]cn2)NC(=O)[C@H](Cc2ccc3ccccc3c2)NC(=O)[C@H](CC(N)=O)NC(=O)[C@H](CC(N)=O)NC1=O` [compound 358, Ac-W-T-I-C(3)-N-N-(2Nal)-H-D-C(3)-W-P-[D-Lys((D-Pro)3-PEG8-DOTA)]-NH2] (Ac-WTICNN[2Nal]HDCWP[dK]([dP-dP-dP-PEG8-DOTA])-NH2; disulfide 4-10), the Kd was < 1 nM. Regarding `CCCCCC(=O)NCC[C@@H]1NC(=O)[C@H](Cc2c[nH]c3ccccc23)NC(=O)[C@H](CC(N)=O)NC(=O)[C@H](CC(N)=O)NC(=O)[C@@H](NC(=O)[C@@H](NC(=O)[C@@H](NC(=O)[C@H](Cc2c[nH]c3ccccc23)NC(C)=O)[C@@H](C)O)[C@@H](C)CC)CSSC[C@@H](C(=O)N[C@@H](Cc2c[nH]c3ccccc23)C(=O)N2CCC[C@H]2C(=O)N[C@H](CCCCNC(=O)CN2CCN(CC(=O)O)CCN(CC(=O)O)CCN(CC(=O)O)CC2)C(N)=O)NC(=O)[C@H](CC(=O)O)NC1=O` [compound 92, Ac-W-T-I-C(3)-N-N-W-(DAB-4-NHCOC5H11)-D-C(3)-W-P-[D-Lys(DOTA)]-NH2] (Ac-WTICNNW[Dab](Hexanoyl)DCWP[dK](DOTA)-NH2; disulfide 4-10), the Kd was in the range of 10 to 100 nM. In the case of `CC[C@H](C)[C@H](NC(=O)[C@@H](NC(=O)[C@H](Cc1c[nH]c2ccccc12)NC(C)=O)[C@@H](C)O)C(=O)N[C@H]1CSSC[C@@H](C(=O)N[C@@H](Cc2c[nH]c3ccccc23)C(=O)N2CCC[C@H]2C(=O)N[C@H](CCCCNC(=O)CC[C@H](NC(=O)CN2CCN(CC(=O)O)CCN(CC(=O)O)CCN(CC(=O)O)CC2)C(=O)O)C(N)=O)NC(=O)[C@H](CC(=O)O)NC(=O)[C@H](Cc2cnc[nH]2)NC(=O)[C@H](Cc2ccc3ccccc3c2)NC(=O)[C@H](CC(N)=O)NC(=O)[C@H](CC(N)=O)NC1=O` [compound 354, Ac-W-T-I-C(3)-N-N-(2Nal)-H-D-C(3)-W-P-[D-Lys(gE-DOTA)]-NH2] (Ac-WTICNN[2Nal]HDCWP[dK]([γGlu-DOTA])-NH2; disulfide 4-10) it was < 1 nM; in that of `CC[C@H](C)[C@H](NC(=O)[C@@H](NC(=O)[C@H](Cc1c[nH]c2ccccc12)NC(C)=O)[C@@H](C)O)C(=O)N[C@H]1CSCc2ccc(cc2)CSC[C@@H](C(=O)N[C@@H](Cc2c[nH]c3ccccc23)C(=O)N2CCC[C@H]2C(=O)N[C@H](CCCCNC(=O)CN2CCN(CC(=O)O)CCN(CC(=O)O)CCN(CC(=O)O)CC2)C(N)=O)NC(=O)[C@H](CC(=O)O)NC(=O)[C@H](Cc2cnc[nH]2)NC(=O)[C@H](Cc2ccc3ccccc3c2)NC(=O)[C@H](CC(N)=O)NC(=O)[C@H](CC(N)=O)NC1=O` [compound 256, Ac-W-T-I-C(3)(pDBX)-N-N-(2Nal)-H-D-C(2)-W-P-[D-Lys(DOTA)]-NH2] (Ac-WTICNN[2Nal]HDCWP[dK](DOTA)-NH2; linker 4-10 via pXylylene), 1 to 10 nM.
